According to article PMC8119294 (Biochemistry, 2020):

Columns and labels:
α-adrenergic receptors = conditions: read-out: Ki for α-adrenergic receptors; cited from earlier work
opioid receptors = conditions: read-out: Ki for opioid receptors; cited from earlier work
human KOP = conditions: HEK 293 cells; cited from earlier work
mice = conditions: radiant heat tail flick assay; cited from earlier work
rats = conditions: hot plate assay; cited from earlier work
MOP = conditions: read-out: Ki at MOP; CHO cells; cited from earlier work
human DOP = conditions: HEK 293 cells, very low potency; cited from earlier work
human MOP = conditions: HEK 293 cells; cited from earlier work
[1] = biological target: human opioid receptor OPRM_HUMAN (hMOP), wild type (Homo sapiens, UniProt P35372); format: cell-based; conditions: for Emax: WT hMOP, normalized to Emax of DAMGO
hMOP H321F mutant = hMOP H321F mutant (Homo sapiens, UniProt P35372, H321F); test: Gαi-mediated cAMP inhibition assay, hMOP H321F mutant; format: cell-based; conditions: for potency reduction at His321F mutant compared to wild-type receptor: EC50 mutant vs wild type; for decrease in efficacy at His321F mutant: Emax mutant vs wild type; for Emax: normalized to Emax of DAMGO
KOP = conditions: read-out: Ki at KOP; CHO cells; cited from earlier work
hMOP Asn129K mutant = hMOP Asn129K mutant (Homo sapiens, UniProt P35372, N129K); test: Gαi-mediated cAMP inhibition assay, hMOP Asn129K mutant; format: cell-based; conditions: for Emax: normalized to Emax of DAMGO
DOP = conditions: read-out: Ki at DOP; CHO cells; cited from earlier work
[2] = HEK 293T cells, wild type (WT) hMOP, cAMP assay, Gi
[3] = HEK 293T cells, hMOP H321F mutant, cAMP assay, Gi
[4] = HEK 293T cells, hMOP Asn129K mutant, cAMP assay, Gi

hMOP H321F mutant, sequence (P35372 whole entry H321F): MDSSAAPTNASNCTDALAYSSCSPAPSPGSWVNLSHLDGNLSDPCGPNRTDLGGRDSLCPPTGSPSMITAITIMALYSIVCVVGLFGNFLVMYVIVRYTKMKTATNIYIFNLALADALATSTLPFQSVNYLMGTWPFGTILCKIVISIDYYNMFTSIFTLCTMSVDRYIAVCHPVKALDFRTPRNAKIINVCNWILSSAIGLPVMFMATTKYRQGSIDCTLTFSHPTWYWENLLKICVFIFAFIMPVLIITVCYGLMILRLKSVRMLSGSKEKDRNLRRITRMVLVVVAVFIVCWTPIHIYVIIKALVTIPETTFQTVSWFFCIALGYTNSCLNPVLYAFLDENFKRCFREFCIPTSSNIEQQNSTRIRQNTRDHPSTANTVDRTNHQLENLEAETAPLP
human opioid receptor OPRM_HUMAN (hMOP), wild type, sequence (P35372 whole entry): as the sequence (P35372 whole entry H321F) above, with F321H counted along it
hMOP Asn129K mutant, sequence (P35372 whole entry N129K): as the sequence (P35372 whole entry H321F) above, with N129K, F321H counted along it

mitragynine [MG]
Ki (α-adrenergic receptors): 1340 to 9290 nM | Ki (opioid receptors): 161 to 198 nM | functional activity at human KOP (human KOP): competitive antagonists | analgesic effect compared to morphine (mice): significantly lower than morphine | analgesic effect compared to morphine (rats): significantly lower than morphine | Ki (MOP): 230 ± 47 nM | functional activity at human DOP (human DOP): competitive antagonists | functional activity at human MOP (human MOP): partial agonists

CC[C@@H]1CN2CC[C@@]3(O)C(=Nc4cccc(OC)c43)[C@@H]2C[C@@H]1/C(=C\OC)C(=O)OC [7OH, 7-hydroxymitragynine]
Emax [1]: 89±3.8% | functional activity at human KOP (human KOP): competitive antagonists | potency reduction at His321F mutant compared to wild-type receptor (hMOP H321F mutant; cAMP assay): 2.5 fold | decrease in efficacy at His321F mutant (hMOP H321F mutant; cAMP assay): > 25% | Emax (hMOP H321F mutant; hMOP H321F mutant): 60 ± 9% | analgesic effect compared to morphine (mice): significantly more potent than morphine | Ki (KOP): 132 ± 7 nM | potency reduction at Asn129K mutant compared to wild-type receptor (hMOP Asn129K mutant; EC50 mutant vs wild type, cAMP assay): 5 fold | Emax (hMOP Asn129K mutant; hMOP Asn129K mutant): 92 ± 3.2% | analgesic effect compared to morphine (rats): significantly more potent than morphine | Ki (MOP): 37 ± 4 nM | functional activity at human DOP (human DOP): competitive antagonists | functional activity at human MOP (human MOP): partial agonists | Ki (DOP): 91 ± 8 nM

CC[C@@H]1CN2CC[C@]3(Nc4cccc(OC)c4C3=O)[C@@H]2C[C@@H]1/C(=C\OC)C(=O)OC [MP, mitragynine pseudoindoxyl]
EC50 [1, 2]: 0.55 nM | pEC50 ± SEM [1, 2]: 9.28±0.11 | Emax [1]: 81±3.6% | potency reduction at His321F mutant compared to wild-type receptor (hMOP H321F mutant; cAMP assay): 32 fold | decrease in efficacy at His321F mutant (hMOP H321F mutant; cAMP assay): > 25% | EC50 (hMOP H321F mutant; [3]): 16.9 nM | pEC50 ± SEM (hMOP H321F mutant; [3]): 7.77 ± 0.27 | Emax (hMOP H321F mutant; hMOP H321F mutant): 58.9 ± 6.7% | potency relative to morphine (mice): 1.5 fold | Ki (KOP): 24 ± 0.9 nM | EC50 (hMOP Asn129K mutant; [4]): 0.9 nM | pEC50 ± SEM (hMOP Asn129K mutant; [4]): 9.04 ± 0.084 | Emax (hMOP Asn129K mutant; hMOP Asn129K mutant): 88 ± 2.97% | Ki (MOP): 0.8 ± 0.2 nM | Ki (DOP): 3 ± 1.3 nM
